Test results as given in patent US8822439B2, “Glucocorticoid receptor agonists” (Pfizer Inc., priority 2007, dated 2014).
pIC50: −log10 of the molar value.

Assays:
[1] = tested on: LPS-induced lung neutrophils; test: Inhibition of LPS-induced lung neutrophilia in rats after intratracheal dosing; format: in vivo; conditions: male CD Sprague-Dawley rats; single intratracheal dose 4 hours before nebulised LPS; BAL 4 hours after LPS
Method: The pharmacological activity may be assessed in in vivo models of lung inflammation such as the one described below. The primary objective of this procedure was to determine the anti-inflammatory activity of the compounds of formula (I), when administered directly into the lungs via the trachea.
Test compounds were dissolved, or prepared as fine suspensions, in phosphate buffered saline containing 0.5% (w/v) Tween-80 to provide a range of dose levels. Male CD Sprague-Dawley rats (300-450 g) were randomised to study groups of n=6 and then briefly anaesthetised in an anaesthetic chamber with 5% Isoflurane in 3 l/min O2. One of the test compound formulations or dose vehicle (100 μl) was injected directly into the trachea of each anaesthetised rat using a Hamilton syringe. The animals were then allowed to recover from the anaesthetic. Dependent on the study design, animals received either a single dose of compound or were treated once daily on 4 successive days. Four hours after the dosing (or 4 hours after the final dose in repeat dose studies) the rats were placed into a chamber (300×300×450 mm), connected to an ultrasonic nebuliser and a small animal rodent ventilator set to the maximum tidal volume and rate (5 ml, 160 strokes/min). 10 ml of 1 mg/ml LPS (Sigma-Aldrich, L2630) dissolved in saline, pre-warmed to 37° C., was nebulised into the chamber. After 15 minutes the ventilator and nebuliser were turned off and the animals remained in the chamber to breathe the mist for a further 15 minutes before being returned to the home cage.
Four hours after the end of the LPS treatment the animals were terminally anaesthetised with 1 ml/kg Pentoject IP. The trachea was cannulated and the lungs lavaged with 4×2.5 ml PBS containing 2.6 mM EDTA and the lavage fluid collected. 1 ml bronchioalveolar lavage (BAL) was added to 125 μl of 40% bovine serum albumen (BSA) and the cellular count determined using an Advia 120 haematology system (Siemens). In repeat dose studies, bodyweights and weights of adrenal glands and thymus were also determined as these are known to decrease in response to glucocorticoid agonist exposure and have been used to assess the systemic effects of glucocorticoid agonists. In some repeat dose experiments, a terminal blood sample was collected from each rat, serum and plasma prepared, and concentrations of corticosterone in serum and ACTH in plasma were determined as additional markers of systemic glucocorticoid agonist effect. In some studies a known glucocorticoid agonist, fluticasone propionate, was administered to separate groups of rats as a positive control.
Separate dose response curves were constructed, for inhibition of LPS-induced lung neutrophils, and each marker of glucocorticoid agonist systemic effect. Half maximal effect doses (ED50) values were estimated from the fitted curves. The ED50 values for effect on systemic markers of glucocorticoid agonist activity were also divided by the ED50 for inhibition of lung neutrophilia in order to determine values for therapeutic index (TI).

[2] = tested on: TNF-α release from LPS stimulated human whole blood (WB); test: Inhibition of TNF-α release from LPS stimulated human whole blood; format: cell-based; conditions: 1 h preincubation, 18 hours after LPS, ELISA
Method: (§1) The anti-inflammatory activity of the compounds against human leukocytes in vitro was also evaluated by determining inhibition of tumour necrosis factor-α (TNF-α) release from lipopolysaccharide (LPS) stimulated human whole blood (WB) and isolated human peripheral mononuclear cells (PBMC).
(§2) Peripheral venous blood from healthy, non-medicated donors was collected using ethylenediaminetetraacetic acid (EDTA) as the anti-coagulant. For PBMC preparation, samples of blood were diluted 1:1 with sterile phosphate buffered saline and then separated using ACCUSPIN™ System-Histopaque®-1077 tubes (Sigma-Aldrich, St Louis, Mo.), centrifuged at 400 g for 35 minutes. Buffy coat cells were removed into PBS, centrifuged at 200 g for 10 minutes and re-suspended in PBMC assay buffer (Hanks Balanced Salt Solution, 0.28% [w/v] 4-[2-hydroxyethyl]-1-piperazineethanesulfonic acid [HEPES], 0.01% [w/v] low-endotoxin bovine serum albumin [BSA]. A differential white cell count was performed and PBMC's diluted to 1×10^6 lymphocytes per ml in PBMC assay buffer.
(§3) Test compounds were dissolved in DMSO and diluted in PBMC assay buffer (final DMSO concentration 1%) to cover an appropriate concentration range, e.g 0.001 nM to 10000 nM. Samples of test compound solution or vehicle (20 μl) were added into 96-well tissue culture treated plates (Corning) and PBMC (160 μl) or WB (160 μl) added to each well. The assay mixtures were incubated at 37° C. for 1 h in a humidified incubator containing an atmosphere of air supplemented with 5% CO2 before adding LPS (20 μl of 100 ng/ml for PBMC or 1 μg/ml for WB). Plates were returned to the incubator for a further 18 hours, and then centrifuged before recovery of samples of supernatant. TNF-α in the samples was determined using an enzyme-linked immunosorbent assay (ELISA) (Invitrogen kit no CHC-1754; Invitrogen Carlsbad, Calif.) and following the manufacturers instructions. Dose response curves were constructed from which IC50 values were calculated.

[3] = tested on: TNF-α release from LPS stimulated isolated human peripheral mononuclear cells (PBMC); test: Inhibition of TNF-α release from LPS stimulated isolated human PBMC; format: cell-based; conditions: 1 h preincubation, 18 hours after LPS, ELISA
Method: as §1, §2, §3

Row | Structure (SMILES) | ED50 for inhibition of lung neutrophilia [1] | pIC50 [2] | pIC50 [3]
1 | C[C@]12C=CC(=O)C=C1[C@@H](F)C[C@H]1[C@@H]3C[C@H]4O[C@@H](c5ccc(Cc6ccccc6)cc5)O[C@@]4(C(=O)CO)[C@@]3(C)C[C@H](O)[C@@]12F [Example 1, (4aS,4bR,5S,6aS,6bS,8R,9aR,10aS,10bS,12S)-8-(4-Benzylphenyl)-4b,12-difluoro-6b-glycoloyl-5-hydroxy-4a,6a-dimethyl-4a,4b,5,6,6a,6b,9a,10,10a,10b,11,12-dodecahydro-2H-naphtho[2′,1′:4,5]indeno[1,2-d][1,3]dioxol-2-one] | 0.27 µg | 7.77 | 10.01
2 | CSc1cccc(Sc2ccc([C@@H]3O[C@@H]4C[C@H]5[C@@H]6C[C@H](F)C7=CC(=O)C=C[C@]7(C)[C@@]6(F)[C@@H](O)C[C@]5(C)[C@]4(C(=O)CO)O3)cc2)c1 [Example 2, (4aS,4bR,5S,6aS,6bS,8R,9aR,10aS,10bS,12S)-4b,12-difluoro-6b-glycoloyl-5-hydroxy-4a 0.6a-dimethyl-8-(4-{[3-(methylthio)phenyl]thio}phenyl)-4a,4b,5,6,6a,6b,9a,10,10a,10b,11.,12-dodecahydro-2H-naphtho[2′,1′:4,5]indeno[1,2-d][1,3]dioxol-2-one] | 0.18 µg | 7.31 | 10.04
3 | C[C@]12C=CC(=O)C=C1[C@@H](F)C[C@H]1[C@@H]3C[C@H]4O[C@@H](c5ccc(CSc6ccc(O)cc6)cc5)O[C@@]4(C(=O)CO)[C@@]3(C)C[C@H](O)[C@@]12F [Example 3, (4aS,4bR,5S,6aS,6bS,8R,9aR,10aS,10bS,12S)-4b,12-Difluoro-6b-glycoloyl-5-hydroxy-8-(4-{[(4-hydroxyphenyl)thio]methyl}phenyl)-4a 0.6a-dimethyl-4a,4b,5,6,6a,6b,9a,10,10a,10b,11,12-dodecahydro-2H-naphtho[2′,1′:4,5]indeno[1,2-d][1,3]dioxol-2-one] | 0.45 µg | 7.62 | 10.21
4 | C[S+]([O-])c1cccc(Sc2ccc([C@@H]3O[C@@H]4C[C@H]5[C@@H]6C[C@H](F)C7=CC(=O)C=C[C@]7(C)[C@@]6(F)[C@@H](O)C[C@]5(C)[C@]4(C(=O)CO)O3)cc2)c1 (stereo partly drawn) [Example 4, (4aS,4bR,5S,6aS,6bS,8R,9aR,10aS,10bS,12S)-4b,12-difluoro-6b-glycoloyl-5-hydroxy-4a,6a-dimethyl-8-(4-{[3-(methylsulfinyl)phenyl]thio}phenyl)-4a,4b,5,6,6a,6b,9a,10,10a,10b,11,12-dodecahydro-2H-naphtho[2′,1′:4.5]indeno[1,2-d][1,3]dioxol-2-one] | 2.00 µg | 7.40 | 10.23
5 | C[C@]12C=CC(=O)C=C1[C@@H](F)C[C@H]1[C@@H]3C[C@H]4O[C@@H](c5ccc(CSc6ccc(O)c(Cl)c6)cc5)O[C@@]4(C(=O)CO)[C@@]3(C)C[C@H](O)[C@@]12F [Example 5, (4aS,4bR,5S,6aS,6bS,8R,9aR,10aS,10bS,12S)-8-(4-{[(3-chloro-4-hydroxyphenyl)thio]methyl}phenyl)-4-b,12-difluoro-6b-glycoloyl-5-hydroxy-4a,6a-dimethyl-4a,4b,5,6,6a,6b,9a,10,10a,10b. 11,12-dodecahydro-2H-naphtho[2′,1′:4.5]indeno[1,2-d][1,3]dioxol-2-one] | 3.6 µg | 8.06 | 10.49
